pIC50: −log10 of the molar value. Where two headings read alike, the source gives them in different places.
Legend:
[1] = ADC stability study: % aggregates by SEC after incubation at 37° C. for 168 h; type: physicochemical
Method: Size Exclusion Chromatography: Size exclusion chromatography (SEC) was performed for quality control of each ADCs by measuring monomer percentage of the conjugate. The analysis was performed on analytical column Superdex 200 Increase 5/150 GL (GE Healthcare, 28990945) in isocratic conditions 100% PBS pH7.4 (Sigma Life Science, P3813, 10PAK), flow 0.45 mI/min for 12 minutes. The % aggregate fraction of the conjugate sample was quantified based on the peak area absorbance at 280 nm. Its calculation was based on the ratio between the high molecular weight eluent at 280 nm divided by the sum of peak area absorbance at the same wavelength of the high molecular weight and monomeric eluents multiplied by 100.
Characterization of the exemplary ADCs is summarized in Table 13 (coupling, LC-MS method, OAR, aggregation status, ADO stability and yield). The average OAR values were determined using the above LC-MS methods and the percentage of aggregates was measured by size exclusion chromatography (SEC) during the quality control of the ADO and after the stability study (incubation at 37° C. for 168 h).

[2] = tested on: H1650 cells; assay: CellTiterGlo (CTG) cell viability, 3D, 120 h, H1650 (Example 8); type: cell-based, human; settings: H1650 3D
[3] = experiment n1, read-out: H1650 3D CTG IC50 n1
[4] = experiment n2, read-out: H1650 3D CTG IC50 n2
[5] = mean of n1 and n2, read-out: H1650 3D CTG IC50 Mean of n1 and n2

SMILES	Stab w1 +37° C. % Agg (by SEC) [1] [%]	pIC50 [2, 3]	pIC50 [2, 4]	pIC50 [2, 5]
Cc1c(Nc2nc3ccccc3s2)nnc2c1CCCN2c1nc(C(=O)[O-])c(CCCOc2ccc(C#CC(C)N3CC[N+](C)(Cc4ccc(NC(=O)[C@H](CCCNC(N)=O)NC(=O)[C@@H](NC(=O)CCOCCN5C(=O)CC(C)C5=O)C(C)C)cc4)CC3)cc2F)s1 (some centres unmarked) [Ab C - L9A-P8]	7	9.85	9.52	9.66
Cc1c(Nc2nc3ccccc3s2)nnc2c1CCCN2c1nc(C(=O)[O-])c(CCCOc2ccc(C#CC[N+](C)(C)Cc3ccc(NC(=O)[C@H](CCCNC(N)=O)NC(=O)[C@@H](NC(=O)CCOCCN4C(=O)CC(C)C4=O)C(C)C)cc3)cc2F)[nH]1 (some centres unmarked) [Ab C - L9A-P1]	6	9.31	9.48	9.39
C=C(C)CCCC[C@](C)(CC(=C)[C@@](C)(CC(=C)CCCCCC1C(=C)CC(C)C1=C)C(C)C)C(=C)Cc1ccc(CCC(=C)C2CCC(CCC[C@]34C[C@]5(C)C[C@](C)(C3)C[C@@](CC3C=CC(c6ccc(C7CCCc8c7ccc(CC7=Cc9ccccc9C7)c8C)cc6C(=C)C)=C3C)(C5)C4)CC2)cc1 (some centres unmarked) [Ab C - L9C-P31]	6	10.15	10.00	10.05
CC[N+](CC)(CC#Cc1ccc(OCCCc2sc(N3CCCc4c3nnc(Nc3nc5ccccc5s3)c4C)nc2C(=O)[O-])c(F)c1)Cc1ccc(NC(=O)[C@H](CCCNC(N)=O)NC(=O)[C@@H](NC(=O)CCOCCN2C(=O)CC(C)C2=O)C(C)C)cc1 (some centres unmarked) [Ab C - L9A-P14]	7	8.89	9.40	9.07
C=C(C)CCCC[C@](C)(CC(=C)[C@@](C)(CC(=C)CCCCCC1C(=C)CC(C)C1=C)C(C)C)C(=C)Cc1ccc(CCC(=C)C(CCCCC)CCC[C@]23C[C@]4(C)C[C@](C)(C2)C[C@@](CC2C=CC(c5ccc(C(C)c6ccc(CC7=Cc8ccccc8C7)c(C)c6)cc5C(=C)C)=C2C)(C4)C3)cc1 (some centres unmarked) [Ab C - L9C-P29]	16	9.89	10.05	9.96
Cc1c(Nc2nc3ccccc3s2)nnc2c1CC(OCCN(C)C(=O)OCc1ccc(NC(=O)[C@H](CCCNC(N)=O)NC(=O)[C@@H](NC(=O)CCOCCN3C(=O)CC(C)C3=O)C(C)C)cc1)CN2c1nc(C(=O)O)c(CCCOc2ccc(C#CCN(C)C)cc2F)s1 (some centres unmarked) [Ab C - L9C-P16]	2.4	8.41	8.38	8.39
CC[N+](C)(CC#Cc1ccc(OCCCc2sc(N3CCCc4c3nnc(Nc3nc5ccccc5s3)c4C)nc2C(=O)O)c(F)c1)Cc1ccc(NC(=O)[C@H](CCCNC(N)=O)NC(=O)[C@@H](NC(=O)CCOCCN2C(=O)CC(C)C2=O)C(C)C)cc1 (some centres unmarked) [Ab C - L9A-P13]	0.2	9.05	9.15	9.10
Cc1c(Nc2nc3ccccc3s2)nnc2c1CCCN2c1nc(C(=O)O)c(CCCOc2ccc(C#CCN(C)C(=O)OCc3ccc(NC(=O)[C@H](CCCNC(N)=O)NC(=O)[C@@H](NC(=O)CCOCCN4C(=O)CC(C)C4=O)C(C)C)cc3S(=O)(=O)O)cc2F)s1 (some centres unmarked) [Ab C - L27C-P3]	17	8.85	8.59	8.70
